Laboratory results: US6914045B2, “Glycopeptide antibiotics” (Wyeth Holdings Corporation, priority 2001, dated 2005)
≈ marks a conversion by molar mass, not a printed value.

How the values were obtained:
[1] = test system: Escherichia coli; test: in vitro antibacterial evaluation, MIC by broth dilution; type: cell-based; conditions: 18 hours at 35° C.; for MIC Escherichia coli (GC 4560): strain GC 4560
Procedure, shortened: (§1)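 MIC = lowest antibiotic concentration preventing visible growth; inoculum 5×10^5 CFU/mL; drug range 64-0.06 μg/mL; Muller-Hinton II […]; NCCLS M7-A2 guidance.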

[2] = test system: Enterococcus sp.; test: as above; type: cell-based; conditions: broth dilution, 18 hours at 35° C.; for MIC Enterococcus faecalis (ATCC 29212): strain ATCC 29212; for MIC Enterococcus faecalis (GC 2242): strain GC 2242; for MIC Enterococcus faecium (GC 2243): strain GC 2243; for MIC Enterococcus faecalis (GC 2691): strain GC 2691; for MIC Enterococcus faecalis (GC 3059): strain GC 3059; for MIC Enterococcus faecalis (GC 4552): strain GC 4552; for MIC Enterococcus faecalis (GC 4553): strain GC 4553; for MIC Enterococcus faecalis (GC 4554): strain GC 4554; for MIC Enterococcus faecium (GC 4556): strain GC 4556; for MIC Enterococcus faecium (GC 4557): strain GC 4557; for MIC Enterococcus avium (GC 4558): strain GC 4558; for MIC Enterococcus faecalis (GC 6189): strain GC 6189
Procedure, shortened: as §1

[3] = test system: Streptococcus sp.; test: as above; type: cell-based; conditions: broth dilution, 18 hours at 35° C.; for MIC Streptococcus pneumoniae (ATCC 6301): strain ATCC 6301; for MIC Streptococcus pneumoniae (GC 1894): strain GC 1894; for MIC Streptococcus pneumoniae (GC 4565): strain GC 4565
Procedure, shortened: as §1

[4] = test system: Staphylococcus sp.; test: as above; type: cell-based; conditions: broth dilution, 18 hours at 35° C.
Procedure, shortened: as §1

[5] = test system: Streptococcus pneumoniae (GC 1894); test: acute lethal infection in mice; type: in vivo; conditions: female CD-1 mice, intraperitoneal challenge, intravenous 30 min. after infection, 7 day survival
Procedure, shortened: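 Intraperitoneal challenge of female CD-1 mice with a bacterial dose lethal to untreated animals within 24-48 hr; single iv treatment 30 min later, 5 mice per dose level. Survival is scored at day 7 and pooled from three experiments to give the median effective dose.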

[6] = clinical pathology (serum clinical chemistry) in mice; type: in vivo; conditions: CD-1 mice, 20 mg/kg intravenously daily for 9 days, sera day 10
Description: 20-day-old CD-1 mice were divided into a vehicle control group (5 mice) and a treatment group (5 mice). Samples of glycopeptide antibiotics were administered at 20 mg/kg intravenously daily for 9 days.

[7] = anatomic pathology (histopathology of heart and kidney) in mice; type: in vivo; conditions: CD-1 mice, 20 mg/kg intravenously daily for 9 days, necropsy day 10, microscopic histopathology
Description: Samples of tissues from necropsied mice were formalin-fixed, paraffin-embedded, sectioned, stained with hematoxylin and eosin, and examined microscopically. Histopathologic findings were recorded. These findings were subjectively graded on a scale corresponding to slight, mild, moderate, marked and severe as compared to untreated controls.

## CC(c1ccccc1)C1NC(=O)CNC(=O)C(CO)NC(=O)C(C(O)C2CNC(=N)N2C2OC(CO)C(O)C(O)C2O)NC(=O)C(C(O)C2CNC(=N)N2)NC(=O)C(Cc2ccc(OC3OC(CO)C(OC4OC5COC6(OC5C(O)C4O)C4CC5CC(C4)CC6C5)C(O)C3O)cc2)NC1=O (stereo not drawn) [Example 105, Cyclo[glycyl-β-methylphenylalanyl-O-[4-O-[4,6-O-(2-adamantylidene)hexopyranosyl]hexopyranosyl]tyrosyl-3-(2-iminoimidazolidin-4-yl)seryl-3-(3-hexopyranosyl-2-iminoimidazolidin-4-yl)serylseryl]]
[1]; strain GC 4559
  MIC Escherichia coli (GC 4559): 32 µg/mL (≈ 22.4 µM)
[1]
  MIC Escherichia coli (GC 4560): 0.5 to 2 µg/mL
[2]
  MIC Enterococcus faecalis (ATCC 29212): 1 to 2 µg/mL
  MIC Enterococcus faecalis (GC 2242): 0.5 to 2 µg/mL
  MIC Enterococcus faecium (GC 2243): 1 to 2 µg/mL
  MIC Enterococcus faecalis (GC 2691): 1 to 2 µg/mL
  MIC Enterococcus faecalis (GC 3059): 1 to 2 µg/mL
  MIC Enterococcus faecalis (GC 4552): 1 to 2 µg/mL
  MIC Enterococcus faecalis (GC 4553): 1 to 2 µg/mL
  MIC Enterococcus faecalis (GC 4554): 1 to 2 µg/mL
  MIC Enterococcus faecium (GC 4556): 0.5 to 2 µg/mL
  MIC Enterococcus faecium (GC 4557): 1 to 2 µg/mL
  MIC Enterococcus avium (GC 4558): 1 to 2 µg/mL
  MIC Enterococcus faecalis (GC 6189): 1 to 2 µg/mL
[3]
  MIC Streptococcus pneumoniae (ATCC 6301): <0.06 µg/mL
  MIC Streptococcus pneumoniae (GC 1894): <0.06 µg/mL
  MIC Streptococcus pneumoniae (GC 4565): <0.06 µg/mL
[4]
  MIC Coagulase Negative Staphylococcus (GC 4547): 0.5 to 1 µg/mL
  MIC Coagulase Negative Staphylococcus (GC 4548): <0.5 to 1 µg/mL
  MIC Coagulase Negative Staphylococcus (GC 4549): 0.5 to 1 µg/mL
  MIC Coagulase Negative Staphylococcus (GC 4551): <0.5 to 1 µg/mL
  MIC Coagulase Negative Staphylococcus (GC 6257): 0.5 to 1 µg/mL
  MIC Staphylococcus aureus (ATCC 29213): <0.5 to 1 µg/mL
  MIC Staphylococcus aureus (GC 1131): 0.25 to 1 µg/mL
  MIC Staphylococcus aureus (GC 3051): 0.5 to 1 µg/mL
  MIC Staphylococcus aureus (GC 3053): 1 to 2 µg/mL
  MIC Staphylococcus aureus (GC 4541): <0.5 to 1 µg/mL
  MIC Staphylococcus aureus (GC 4542): 0.5 to 1 µg/mL
  MIC Staphylococcus aureus (GC 4544): 0.25 to 2 µg/mL
  MIC Staphylococcus aureus (GC 4545): <0.5 to 1 µg/mL
  MIC Staphylococcus aureus-SMITH (GC 4543): 0.25 to 1 µg/mL
  MIC Staphylococcus haemolyticus (GC 4546): <0.5 to 1 µg/mL
[4]; strain GC 4546
  MIC Staphylococcus haemolyticus (GC 4546): <0.5 to 1 µg/mL
[4]; strain GC 4547
  MIC Coagulase Negative Staphylococcus (GC 4547): 0.5 to 1 µg/mL
[4]; strain GC 4548
  MIC Coagulase Negative Staphylococcus (GC 4548): <0.5 to 1 µg/mL
[4]; strain GC 4549
  MIC Coagulase Negative Staphylococcus (GC 4549): 0.5 to 1 µg/mL
[4]; strain GC 4551
  MIC Coagulase Negative Staphylococcus (GC 4551): <0.5 to 1 µg/mL
[4]; strain GC 6257
  MIC Coagulase Negative Staphylococcus (GC 6257): 0.5 to 1 µg/mL
[5]
  median effective dose (ED50), Streptococcus pneumoniae (GC 1894): 0.04 mg/kg
[6]
  Clinical Chemistry (Day 10) % of Control, ALT: +480%
  Clinical Chemistry (Day 10) % of Control, BUN: +35%
[7]
  Anatomical Pathology (Day 10), Heart: +++
  Anatomical Pathology (Day 10), Kidney: +++

## N=C1NCC(C(O)C2NC(=O)C(Cc3ccc(OC4OC(CO)C(OC5OC6COC7(OC6C(O)C5O)C5CC6CC(C5)CC7C6)C(O)C4O)cc3)NC(=O)C(CC3CCCCC3)NC(=O)CNC(=O)C(CO)NC(=O)C(C(O)C3CNC(=N)N3C3OC(CO)C(O)C(O)C3O)NC2=O)N1 (stereo not drawn) [Example 106, Cyclo[3-cyclohexylalanyl-O-[4-O-[4,6-O-(2-adamantylidene)hexopyranosyl]hexopyranosyl]-tyrosyl-3-(2-iminoimidazolidin-4-yl)seryl-3-(3-hexopyranosyl-2-iminoimidazolidin-4-yl)-serylserylglycyl]]
[1]
  MIC Escherichia coli (GC 4560): 0.5 to 2 µg/mL
[2]
  MIC Enterococcus faecalis (ATCC 29212): 0.5 to 2 µg/mL
  MIC Enterococcus faecalis (GC 2242): 0.5 to 2 µg/mL
  MIC Enterococcus faecium (GC 2243): 0.5 to 2 µg/mL
  MIC Enterococcus faecalis (GC 2691): 1 to 2 µg/mL
  MIC Enterococcus faecalis (GC 3059): 1 to 2 µg/mL
  MIC Enterococcus faecalis (GC 4552): 1 to 2 µg/mL
  MIC Enterococcus faecalis (GC 4553): 1 to 2 µg/mL
  MIC Enterococcus faecalis (GC 4554): 1 to 2 µg/mL
  MIC Enterococcus faecium (GC 4556): 0.5 to 2 µg/mL
  MIC Enterococcus faecium (GC 4557): 0.5 to 2 µg/mL
  MIC Enterococcus avium (GC 4558): 1 to 2 µg/mL
  MIC Enterococcus faecalis (GC 6189): 1 to 2 µg/mL
[3]
  MIC Streptococcus pneumoniae (ATCC 6301): <0.03 µg/mL
  MIC Streptococcus pneumoniae (GC 1894): <0.03 µg/mL
  MIC Streptococcus pneumoniae (GC 4565): <0.03 µg/mL
[3]; strain GC 4563
  MIC Streptococcus pyogenes (GC 4563): <0.03 µg/mL
[3]; strain GC 4564
  MIC Streptococcus agalactiae (GC 4564): <0.03 µg/mL
[4]
  MIC Coagulase Negative Staphylococcus (GC 4547): 0.5 to 2 µg/mL
  MIC Coagulase Negative Staphylococcus (GC 4548): 0.25 to 1 µg/mL
  MIC Coagulase Negative Staphylococcus (GC 4549): <0.12 to 1 µg/mL
  MIC Coagulase Negative Staphylococcus (GC 4551): 0.25 to 1 µg/mL
  MIC Coagulase Negative Staphylococcus (GC 6257): 0.25 µg/mL (≈ 0.176 µM)
  MIC Staphylococcus aureus (ATCC 29213): 0.5 to 2 µg/mL
  MIC Staphylococcus aureus (GC 1131): 0.5 to 2 µg/mL
  MIC Staphylococcus aureus (GC 3051): 0.5 to 2 µg/mL
  MIC Staphylococcus aureus (GC 3053): 0.5 to 2 µg/mL
  MIC Staphylococcus aureus (GC 4541): 0.5 to 2 µg/mL
  MIC Staphylococcus aureus (GC 4542): 0.25 to 1 µg/mL
  MIC Staphylococcus aureus (GC 4544): 0.25 to 2 µg/mL
  MIC Staphylococcus aureus (GC 4545): 0.5 to 2 µg/mL
  MIC Staphylococcus aureus-SMITH (GC 4543): 0.25 to 1 µg/mL
  MIC Staphylococcus haemolyticus (GC 4546): 0.5 to 1 µg/mL
[4]; strain GC 4546
  MIC Staphylococcus haemolyticus (GC 4546): 0.5 to 1 µg/mL
[4]; strain GC 4547
  MIC Coagulase Negative Staphylococcus (GC 4547): 0.5 to 2 µg/mL
[4]; strain GC 6257
  MIC Coagulase Negative Staphylococcus (GC 6257): 0.25 µg/mL (≈ 0.176 µM)
[5]
  median effective dose (ED50), Streptococcus pneumoniae (GC 1894): 0.07 mg/kg
[7]
  Anatomical Pathology (Day 10), Heart: 0
